Experimental data reported in ChEMBL document CHEMBL3507680, “University of Dundee, Gates Library screen for HepG2 cell viability”.

Assay: Human HepG2 cell viability assay in 384 well format
Assay type: toxicity, cell-based
Parameters: dose 125 nL, time 70.5 hour; concentration not given beside the values
Conditions: HepG2 cells, read-out: Inhibition

Row | SMILES | cytotoxicity at 70.5 h
1 | Cc1cc(CNC(=O)N2CCN(Cc3ccccc3)C[C@H]2C)on1 | 30.7%
2 | CCNC(=O)CCC(=O)Nc1ccc2nn(C(C)C)cc2c1 | 18.4%
3 | Cc1ncsc1CNC(=O)N1CCN(Cc2ccccc2)CC1C (stereo not drawn) | -9.74%
4 | Cc1ccc(-n2ccnc2)c(C(=O)NCCOCC(F)(F)F)c1 | -8.14%
5 | CCC(C)(C)C(=O)N1CCN(C2=NCC(C)S2)CC1 (stereo not drawn) | -8.95%
6 | CC(C)n1cc2cc(NC(=O)Cn3cnnn3)ccc2n1 | -7.92%
7 | Cc1ccc(CNC(=O)NC(C)CCS(C)(=O)=O)cc1F (stereo not drawn) | -7.34%
8 | O=C(c1ccncc1)N1CCN(c2ccc(F)cc2Cl)CC1 | 18.4%
9 | CC(CCS(C)(=O)=O)NC(=O)NCc1ccc2ccccc2c1 (stereo not drawn) | 5.09%
10 | CCN1C(=O)C2(CCCCC2)NC12CCSCC2 | -7.61%
11 | O=C1CN(C(=O)C2CCOC2)CCN1Cc1ccc(Cl)cc1 (stereo not drawn) | 23.8%
12 | O=C1CN(C(=O)C2CCCOC2)CCN1Cc1ccc(Cl)cc1 (stereo not drawn) | -5.9%
13 | COc1ccc(CSCC(O)CO)c(Cl)c1 (stereo not drawn) | 18.2%
14 | OCC(O)CSCc1ccc(Cl)cc1Cl (stereo not drawn) | 0.304%
15 | Cn1ccc2c(C(=O)N3CCC4(CCOC4)C3)cccc21 (stereo not drawn) | 23.5%
16 | Cc1ncsc1C(=O)N1CCN(Cc2ccccc2)CC1C (stereo not drawn) | 2.52%
17 | Cc1ncccc1CNCC1COC2(CCCCC2)O1 (stereo not drawn) | 27.5%
18 | CC(C)OCCC(=O)Nc1cc(C(=O)N(C)C(C)C)ccc1Cl | 4.24%
19 | CC(NC(=O)NCc1ccccn1)c1cccs1 (stereo not drawn) | -13.9%
20 | O=C(NCc1cccnc1N1CCCCC1)c1ccc2c(c1)OCO2 | -18.5%

Row | SMILES | cytotoxicity at 70.5 h
21 | Cn1cccc1C1CCCN1Cc1noc(C(C)(C)C)n1 (stereo not drawn) | -21.2%
22 | O=C(CCOc1ccccc1F)N1CCOCC1 | 44.2%
23 | CCCN(CCc1ccccn1)C(=O)Cn1cnnn1 | -23.7%
24 | CNc1cc2c(nn1)CCN(C(=O)c1ccccc1-n1cccn1)C2 | 47.8%
25 | CC(O)C1CCN(C(=O)CCOc2ccccc2F)CC1 (stereo not drawn) | -14.1%
26 | O=C(Cn1cc(Cl)cn1)N1CCNC1=O | 48.7%
27 | Cc1nc(C)c(COc2ccc(S(=O)(=O)N(C)C)cc2)s1 | -22.5%
28 | O=C(Cn1cc(I)cn1)N1CCNC1=O | -8.59%
29 | CN(CCNC(=O)Nc1cnn(C)c1)Cc1ccc(F)cc1 | -20.9%
30 | CN(CCNC(=O)Nc1ccn(C)n1)Cc1ccc(F)cc1 | -22.5%
31 | Cc1cc(C(=O)NCCN2CCCCC2C)nn1C(C)(C)C (stereo not drawn) | -10.9%
32 | CC(C)(C)c1nc(CN2CCCC2c2nnc3ccccn23)no1 (stereo not drawn) | -22.6%
33 | Cc1cc(C2CCCN(CCc3ccc4c(c3)CCO4)C2)n[nH]1 (stereo not drawn) | -8.81%
34 | CN(CCc1ccccc1)c1cnn(C)c(=O)c1Br | -15.5%
35 | CCOCC(=O)Nc1nccn1Cc1ccc(Br)cc1 | -5.58%
36 | CN1CCN(c2ccc(CO)cc2F)CC1 | -8.87%
37 | COc1cccc(CC2CCCN2CC(N)=O)c1 (stereo not drawn) | -8.71%
38 | CC(=O)NC1CCCN(Cc2ccc(-n3ccnc3)cc2)C1 (stereo not drawn) | -4.74%
39 | COc1cccc(C(O)CN2CCN(C(=O)c3ccsc3)CC2)c1 (stereo not drawn) | -5.91%
40 | Cn1ccc(NC(=O)NC2CCCN(c3ccccc3Cl)C2=O)n1 (stereo not drawn) | -0.238%

Row | SMILES | cytotoxicity at 70.5 h
41 | Cc1ccc(N2CCCC(NC(=O)Nc3cnn(C)c3)C2=O)cc1 (stereo not drawn) | 9.02%
42 | CC(C)c1ccc(-n2cc(O)c(C(=O)N3CCC(C(N)=O)CC3)n2)cc1 | 0.806%
43 | Cc1cc(NC(=O)N(CCC#N)CCCN(C)C)ccc1F | -2.44%
44 | COCC(=O)Nc1nccn1Cc1ccc(Br)cc1 | -0.968%
45 | NC(=O)CCNC(=O)NCC1(c2ccccc2Cl)CCC1 | -2.77%
46 | CNC(=O)c1[nH]nc2ccc(I)cc12 | -3.31%
47 | CCc1nnc(CN2CCC(C3CCCCCN3C(=O)C3CC3)CC2)o1 (stereo not drawn) | -1.17%
48 | Cn1cc(NC(=O)NC2CCCN(c3ccccc3Cl)C2=O)cn1 (stereo not drawn) | -5.63%
49 | N#CCCCN1CCCC1Cc1ccccc1 (stereo not drawn) | -3.84%
50 | COc1ccc(-c2noc(C(CC(C)C)N3CCCCC3=O)n2)cn1 (stereo not drawn) | -0.898%
51 | Cc1cc(Br)ccc1C(=O)N(C)CCNS(C)(=O)=O | -6.05%
52 | COc1ccccc1C(C)CC(=O)N1CC[C@H](O)C1 (stereo partly drawn) | -1.27%
53 | Cc1nn(C)c(C)c1C1CCCN1C(=O)Cc1cn2ccsc2n1 (stereo not drawn) | 23.9%
54 | Cc1nc(CN2CCCC(Nc3ncnc4c3CCC4)C2)no1 (stereo not drawn) | -7.99%
55 | Cn1nc(C(C)(C)C)cc1NC(=O)Cn1ccccc1=O | -12%
56 | CC(C)(C)c1nc(CN(Cc2cccs2)C2CCS(=O)(=O)C2)cs1 (stereo not drawn) | -2.81%
57 | Cc1ccsc1CNC(=O)c1ccc(N2CCOC2=O)cc1 | -7.71%
58 | N#Cc1ccc(N2CCCN(CC(=O)N3CCOCC3)CC2)cc1 | 21.1%
